Results reported in the supplement of paper PMC10307832.

Columns and labels:
Assay in all cases: relative viability (nuclei count vs DMSO), 5 days (fraction); higher = more cells survive
JZL-184 + Phenformin = compound: C1CN(CCC1C(C2=CC3=C(C=C2)OCO3)(C4=CC5=C(C=C4)OCO5)O)C(=O)OC6=CC=C(C=C6)[N+](=O)[O-] [JZL-184] + N=C(N)NC(=N)NCCc1ccccc1 [Phenformin] (partner 250 µM)
Outline: (§1)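 A single step with final 0.05% Triton X-100, 1% formaldehyde and 1 ug/ml Hoechst fixed the cells and stained nuclei 5 days after treatment. Lung cancer cell lines in 1536-well plates had been treated by pin tool the day after seeding with one drug alone or a fixed anchor-drug dose plus five library-drug doses (not always all listed) in √10 steps, and nuclei were counted on 4× images. Relative viability is the ratio of nuclei in treated wells to nuclei in vehicle wells, taken as the median of duplicate plates.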

JZL-184 + AZD7762 = compound: C1CN(CCC1C(C2=CC3=C(C=C2)OCO3)(C4=CC5=C(C=C4)OCO5)O)C(=O)OC6=CC=C(C=C6)[N+](=O)[O-] [JZL-184] + NC(=O)Nc1cc(-c2cccc(F)c2)sc1C(=O)N[C@H]1CCCNC1 [AZD7762] (partner 0.2 µM)
Outline: as §1

JZL-184 + Alpelisib = compound: C1CN(CCC1C(C2=CC3=C(C=C2)OCO3)(C4=CC5=C(C=C4)OCO5)O)C(=O)OC6=CC=C(C=C6)[N+](=O)[O-] [JZL-184] + Cc1nc(NC(=O)N2CCC[C@H]2C(N)=O)sc1-c1ccnc(C(C)(C)C(F)(F)F)c1 [Alpelisib] (partner 2 µM)
Outline: as §1

JZL-184 + Dasatinib = compound: C1CN(CCC1C(C2=CC3=C(C=C2)OCO3)(C4=CC5=C(C=C4)OCO5)O)C(=O)OC6=CC=C(C=C6)[N+](=O)[O-] [JZL-184] + Cc1nc(Nc2ncc(C(=O)Nc3c(C)cccc3Cl)s2)cc(N2CCN(CCO)CC2)n1 [Dasatinib] (partner 0.075 µM)
Outline: as §1

JZL-184 + Lapatinib = compound: C1CN(CCC1C(C2=CC3=C(C=C2)OCO3)(C4=CC5=C(C=C4)OCO5)O)C(=O)OC6=CC=C(C=C6)[N+](=O)[O-] [JZL-184] + CS(=O)(=O)CCNCc1ccc(-c2ccc3ncnc(Nc4ccc(OCc5cccc(F)c5)c(Cl)c4)c3c2)o1 [Lapatinib] (partner 2 µM)
Outline: as §1

Cell Line	relative viability (JZL-184 + Phenformin; first compound 0.04 µM)	relative viability (JZL-184 + Phenformin; first compound 0.4 µM)	relative viability (JZL-184 + Phenformin; first compound 1.265 µM)	relative viability (JZL-184 + Phenformin; first compound 4 µM)	relative viability (JZL-184 + AZD7762; first compound 0.04 µM)	relative viability (JZL-184 + AZD7762; first compound 0.4 µM)	relative viability (JZL-184 + AZD7762; first compound 1.265 µM)	relative viability (JZL-184 + AZD7762; first compound 4 µM)	relative viability (JZL-184 + Alpelisib; first compound 0.04 µM)	relative viability (JZL-184 + Alpelisib; first compound 0.4 µM)	relative viability (JZL-184 + Alpelisib; first compound 1.265 µM)	relative viability (JZL-184 + Alpelisib; first compound 4 µM)	relative viability (JZL-184 + Dasatinib; first compound 0.04 µM)	relative viability (JZL-184 + Dasatinib; first compound 0.4 µM)	relative viability (JZL-184 + Dasatinib; first compound 1.265 µM)	relative viability (JZL-184 + Dasatinib; first compound 4 µM)	relative viability (JZL-184 + Lapatinib; first compound 0.04 µM)	relative viability (JZL-184 + Lapatinib; first compound 0.4 µM)	relative viability (JZL-184 + Lapatinib; first compound 1.265 µM)	relative viability (JZL-184 + Lapatinib; first compound 4 µM)
201T	0.451	0.44	0.465	0.45	0.711	0.57	0.586	0.611	0.991	1.05	1.04	0.997	0.577	0.535	0.61	0.574	1.09	1.06	0.981	1.02
A-427	0.308	0.327	0.441	0.306	0.807	0.722	0.838	0.703	1.08	1.06	1.1	0.979	0.785	0.683	0.71	0.706	1.17	1.05	1.01	1.09
ABC-1	0.225	0.224	0.301	0.247			0.715	0.968	1.1	0.996	1.06	0.952	0.601	0.479	0.533	0.482	1.09	0.947	1.07	1.19
BEN	0.245	0.235	0.271	0.279	0.731	0.666	0.752	0.792	1.18	0.998	1.12	1.03	0.333	0.349	0.328	0.337	0.865	0.671	0.939	0.819
CAL-12T	0.751	0.26	0.626	0.539	0.712	0.531	0.7	0.613	1.5	1.39	1.08	1.17	0.515	0.254	0.488	0.341	0.701	0.529	0.789	0.593
COR-L23	0.552	0.401	0.438	0.429					1.02	0.672	0.704	0.708	0.596	0.425	0.514	0.407	1.26	0.818	0.889	0.823
COR-L 105	0.595	0.497	0.548	0.436					0.998	1.2	0.837	0.916	0.493	0.389	0.35	0.336	0.349	0.352	0.394	0.327
ChaGo-K-1	0.616	0.449	0.467	0.44	0.865	0.761	0.933	0.832					0.657	0.581	0.61	0.595				
EKVX	0.236	0.243	0.244	0.238	0.732	0.688	0.793	0.645	0.679	0.84	0.875	0.886	0.474	0.536	0.576	0.581	0.193	0.221	0.194	0.2
EMC-BAC-2	0.609	0.476	0.568	0.456	1.16	1.11	1.14	1.08	0.794	0.733	0.776	0.729	0.349	0.32	0.336	0.326	0.96	0.869	0.971	0.83
EPLC-272H	0.303	0.293	0.351	0.34	0.194	0.186	0.211	0.302	0.953	0.817	1.01	0.966	0.403	0.41	0.445	0.325	1.07	1.02	0.972	0.944
H3255	0.321	0.323	0.336	0.422	0.945	0.743	0.948	0.86	0.794	0.725	0.714	0.577	0.353	0.346	0.288	0.38	0.234	0.267	0.261	0.321
HARA	0.376	0.39	0.481	0.407	0.126		0.43	0.379	0.941	0.824	0.853	0.845	0.309	0.16	0.29	0.28	0.839	0.773	0.807	0.751
HCC-15	0.548	0.467	0.485	0.454	1	1.21	1.3	1.14	0.933	0.899	0.877	0.931	0.647	0.673	0.677	0.524	0.988	0.813	0.943	0.778
HCC-44	0.231	0.104	0.245	0.185	1.14	1.01	1.03	0.987	0.671	0.8	0.749	0.74					1.15	0.93	1.08	1.07
IA-LM									0.991	0.526	0.886	0.744					1.09	0.555	0.759	0.629

Cell Line	relative viability (JZL-184 + Phenformin; first compound 0.04 µM)	relative viability (JZL-184 + Phenformin; first compound 0.4 µM)	relative viability (JZL-184 + Phenformin; first compound 1.265 µM)	relative viability (JZL-184 + Phenformin; first compound 4 µM)	relative viability (JZL-184 + AZD7762; first compound 0.04 µM)	relative viability (JZL-184 + AZD7762; first compound 0.4 µM)	relative viability (JZL-184 + AZD7762; first compound 1.265 µM)	relative viability (JZL-184 + AZD7762; first compound 4 µM)	relative viability (JZL-184 + Alpelisib; first compound 0.04 µM)	relative viability (JZL-184 + Alpelisib; first compound 0.4 µM)	relative viability (JZL-184 + Alpelisib; first compound 1.265 µM)	relative viability (JZL-184 + Alpelisib; first compound 4 µM)	relative viability (JZL-184 + Dasatinib; first compound 0.04 µM)	relative viability (JZL-184 + Dasatinib; first compound 0.4 µM)	relative viability (JZL-184 + Dasatinib; first compound 1.265 µM)	relative viability (JZL-184 + Dasatinib; first compound 4 µM)	relative viability (JZL-184 + Lapatinib; first compound 0.04 µM)	relative viability (JZL-184 + Lapatinib; first compound 0.4 µM)	relative viability (JZL-184 + Lapatinib; first compound 1.265 µM)	relative viability (JZL-184 + Lapatinib; first compound 4 µM)
LCLC-103H	0.338	0.296	0.345	0.323	0.791	0.764	0.833	0.754	1.03	0.867	1.05	0.981	0.45	0.557	0.489	0.392				
NCI-H441	0.818	0.802	0.914	0.923	1.44	1.23	1	1.02	1.11	0.634	0.755	1.09	0.584	0.546	0.606	0.524				
NCI-H520	0.533	0.48	0.739	0.485					1.02	0.965	1.02	0.897	0.188	0.2	0.178	0.168	0.79	0.76	0.856	0.631
NCI-H522	0.606	0.667	0.59	0.635	0.898	0.706	0.885	0.781					0.967	0.821	0.842	0.946				
NCI-H661	0.259	0.287	0.292	0.332					0.453	0.483	0.707	0.717	0.95	0.851	0.907	0.867	0.505	0.481	0.637	0.382
NCI-H1650	0.427	0.411	0.524	0.357									0.306	0.297	0.388	0.296	0.821	0.735	0.939	0.718
NCI-H1703					0.106	0.117	0.129	0.112	0.335	0.295	0.389	0.294					1.44	0.936	1.4	0.983
NCI-H2009	0.518	0.473	0.51	0.461					1.17	1.1	1.16	1.09	0.354	0.28	0.333	0.239	1.15	0.805	0.928	1.01
NCI-H2023	0.477	0.342	0.469	0.35					0.654	0.593	0.568	0.593	0.713	0.549	0.587	0.48	1.14	0.853	0.964	0.802
NCI-H2228	0.405	0.239	0.317	0.412					0.894	0.726	0.709	0.789	0.663	0.445	0.543	0.587	1.37	0.796	1.03	1.15
NCI-H2342	0.598	0.534	0.635	0.697	0.556	0.39	0.563	0.6					0.317	0.293	0.282	0.368				
SK-LU-1	0.528	0.504	0.677	0.564					1.51	0.931	1.3	1.06	0.183	0.196	0.194	0.207	1.21	0.814	0.962	0.822
SK-MES-1	0.736	0.64	0.688	0.615					0.938	0.851	0.863	0.896	0.332	0.486	0.359	0.445	0.424	0.434	0.43	0.415
SW 900	0.595	0.506	0.555	0.748	0.573	0.756	0.627	0.594					0.543	0.619	0.661	0.509				
SW 1573	0.446	0.296	0.373	0.283					0.873	0.605	0.894	0.75	0.638	0.379	0.548	0.42	1.25	1.15	1.25	1.01
UMC-11	0.289	0.319	0.3	0.331					1.39	0.904	0.924	0.96	0.662	0.474	0.494	0.447	1.26	0.898	1.05	0.947
